According to US7141595B2, “Amino benzothiazole compounds with NOS inhibitory activity” (Neuraxon Inc., priority 2002, dated 2006):
Where a name gives a salt, the structure may show the parent alone.

Columns and labels:
nNOS = nNOS (UniProt P29476); test: nNOS enzyme assay (hemoglobin capture assay); type: biochemical; conditions: initial velocity, read-out: IC50 of NOS, nNOS
Procedure: (§1) The reaction mixture for iNOS contained 10 mM of L-arginine, […], 6.5 mM BH4 and 3 mM oxyhemoglobin in 100 mM Hepes (pH 7.5). All assays were in a final volume of […] and were initiated with enzyme.
(§2) IC50 and percent inhibition of NOS by the compounds of the invention were determined under initial velocity measurement condition with hemoglobin capture assay as described above using varying concentrations of the compounds of the invention.

iNOS = molecular target: T1, iNOS (UniProt P29477); test: iNOS enzyme assay (hemoglobin capture assay); type: biochemical; conditions: initial velocity, read-out: IC50 of NOS, iNOS
T1 sequence (P29477 1-1144): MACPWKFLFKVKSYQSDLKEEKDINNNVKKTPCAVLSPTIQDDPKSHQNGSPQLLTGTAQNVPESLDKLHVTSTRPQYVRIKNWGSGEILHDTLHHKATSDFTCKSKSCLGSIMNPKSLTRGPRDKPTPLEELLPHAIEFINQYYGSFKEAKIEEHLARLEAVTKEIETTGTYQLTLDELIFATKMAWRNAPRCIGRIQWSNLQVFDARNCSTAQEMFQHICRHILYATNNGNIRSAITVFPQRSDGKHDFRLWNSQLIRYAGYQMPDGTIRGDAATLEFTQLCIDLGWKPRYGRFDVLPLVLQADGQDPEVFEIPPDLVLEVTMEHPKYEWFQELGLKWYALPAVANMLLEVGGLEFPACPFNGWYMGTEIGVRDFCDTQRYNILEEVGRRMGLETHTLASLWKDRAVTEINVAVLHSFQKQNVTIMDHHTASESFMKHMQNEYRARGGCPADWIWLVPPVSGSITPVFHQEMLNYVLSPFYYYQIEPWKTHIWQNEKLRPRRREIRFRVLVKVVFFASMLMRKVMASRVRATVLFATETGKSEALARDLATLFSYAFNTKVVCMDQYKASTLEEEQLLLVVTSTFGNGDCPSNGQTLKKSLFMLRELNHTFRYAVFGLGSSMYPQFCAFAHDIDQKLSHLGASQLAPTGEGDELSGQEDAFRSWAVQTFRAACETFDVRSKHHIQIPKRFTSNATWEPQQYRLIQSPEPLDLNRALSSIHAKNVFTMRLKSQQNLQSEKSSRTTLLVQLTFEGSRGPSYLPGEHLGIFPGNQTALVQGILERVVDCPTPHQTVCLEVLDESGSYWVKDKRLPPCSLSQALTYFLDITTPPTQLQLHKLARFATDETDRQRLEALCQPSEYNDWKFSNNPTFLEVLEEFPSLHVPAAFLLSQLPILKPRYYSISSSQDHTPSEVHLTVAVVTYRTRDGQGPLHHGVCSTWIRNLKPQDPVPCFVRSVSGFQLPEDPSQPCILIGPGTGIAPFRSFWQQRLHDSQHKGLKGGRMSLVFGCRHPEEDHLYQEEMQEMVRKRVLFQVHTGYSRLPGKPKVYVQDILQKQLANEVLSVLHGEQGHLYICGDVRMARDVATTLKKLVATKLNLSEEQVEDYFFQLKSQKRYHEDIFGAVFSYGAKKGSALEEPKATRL
Procedure: as §1, §2

eNOS = molecular target: T2, eNOS (UniProt P29473); test: eNOS enzyme assay (hemoglobin capture assay); type: biochemical; conditions: initial velocity, read-out: IC50 of NOS, eNOS
T2 sequence (P29473 1-1205): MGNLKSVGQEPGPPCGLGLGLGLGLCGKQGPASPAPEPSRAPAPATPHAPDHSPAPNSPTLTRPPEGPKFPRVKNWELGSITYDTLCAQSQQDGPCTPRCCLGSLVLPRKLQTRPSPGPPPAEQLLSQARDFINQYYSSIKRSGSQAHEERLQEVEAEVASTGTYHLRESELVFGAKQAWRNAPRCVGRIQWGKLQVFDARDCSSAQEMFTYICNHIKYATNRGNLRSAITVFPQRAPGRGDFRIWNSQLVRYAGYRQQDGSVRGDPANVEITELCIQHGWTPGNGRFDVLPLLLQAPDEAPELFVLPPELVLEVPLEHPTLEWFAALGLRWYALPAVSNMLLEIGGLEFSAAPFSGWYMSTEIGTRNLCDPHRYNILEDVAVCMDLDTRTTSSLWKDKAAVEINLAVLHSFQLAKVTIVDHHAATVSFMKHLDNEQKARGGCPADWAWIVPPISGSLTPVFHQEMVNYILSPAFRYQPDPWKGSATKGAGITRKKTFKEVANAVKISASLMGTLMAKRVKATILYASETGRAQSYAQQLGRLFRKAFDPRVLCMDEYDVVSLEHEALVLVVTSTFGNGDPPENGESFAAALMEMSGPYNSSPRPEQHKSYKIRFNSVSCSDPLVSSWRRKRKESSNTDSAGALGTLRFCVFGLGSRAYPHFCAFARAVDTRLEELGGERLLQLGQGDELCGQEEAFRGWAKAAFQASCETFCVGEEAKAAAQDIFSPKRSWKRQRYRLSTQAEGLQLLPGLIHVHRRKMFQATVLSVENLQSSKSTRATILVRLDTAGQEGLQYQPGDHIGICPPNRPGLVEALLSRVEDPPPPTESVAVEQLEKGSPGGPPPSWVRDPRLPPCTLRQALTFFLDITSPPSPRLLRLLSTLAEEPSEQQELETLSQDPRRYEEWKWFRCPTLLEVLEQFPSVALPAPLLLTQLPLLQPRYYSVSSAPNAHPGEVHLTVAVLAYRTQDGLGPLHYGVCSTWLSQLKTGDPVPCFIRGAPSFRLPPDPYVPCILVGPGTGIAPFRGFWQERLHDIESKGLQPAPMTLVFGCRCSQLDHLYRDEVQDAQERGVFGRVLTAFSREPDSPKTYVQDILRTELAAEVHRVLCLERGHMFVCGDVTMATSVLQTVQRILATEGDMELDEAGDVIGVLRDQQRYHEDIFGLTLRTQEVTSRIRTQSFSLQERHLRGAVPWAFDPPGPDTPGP
Procedure: The generation of nitric oxide by NOS was measured using the hemoglobin capture assay (Proc. Natl. Acad. Sci., U.S.A. 1990, 87, 714; Huang et al. J. Med. Chem. 2000, 43, 2938). An assay mixture for nNOS contained 10 mM L-arginine, 1.6 mM CaCl2, […] calmoduline, […], 6.5 mM BH4 and 3 mM oxyhemoglobin in 100 mM Hepes (pH 7.5). The reaction mixture for iNOS contained 10 mM of L-arginine, […], 6.5 mM BH4 and 3 mM oxyhemoglobin in 100 mM Hepes (pH 7.5). All assays were in a final volume of […] and were initiated with enzyme. Nitric oxide reacts with oxyhemoglobin to yield methehemoglobin which is detected at 401 nm (ε=19,700 M^−1cm^−1) on a Perkin-Elmer Lamda 10 UV/vis spectrophotometer.
as §2

[1] = test system: Rat cortical neuronal cultures; test: Neuroprotection of rat cortical cells against NMDA challenge; type: cell-based; conditions: 25 μM NMDA 30 minutes; 60-minute pre-incubation; % cell death by propidium iodide after 24 hrs
Procedure: Rat cortical neuronal cultures were exposed for 30 minutes to 25 μM NMDA in buffer with or without the test compounds according to previously reported procedures (J. Neurosci. 2000 October 1; 20(19):7183–92). Test compounds were added for a 60-minute pre-incubation period in order to maximize the chance of seeing neuroprotection. After 24 hrs cultures were treated with propidium iodide and the % cell death determined.

Row | SMILES | IC50 (nNOS) | IC50 (iNOS) | IC50 (eNOS) | neuroprotection during NMDA challenge [1]
1 | CSC(=N)Nc1ccc2nc(N)sc2c1 [Example 4, N-(2-Amino-benzothiazol-6-yl)-2-methylthiocarboximidamide] | 4.2 µM | 327 µM | 83.3 µM | 
2 | N=C(Nc1ccc2nc(N)sc2c1)c1cccs1 [Example 9, N-(2-Amino-benzothiazol-6-yl)-2-thiophenecarboximidamide] |  |  | 119 µM | 
3 | N=C(Nc1ccc2nc(NCCN3CCCC3)sc2c1)c1cccs1 [Example 13, N-[2-(2-pyrrolidin-1-ylethylamino)-benzothiazol-6-yl]-2-thiophenecarboximidamide] | 11.9 µM | 125 µM | 100 µM | 
4 | Nc1nc2cc(NC(=S)NC(=O)c3ccccc3)ccc2s1 [Example 17, 1-(2-Amino-benzothiazol-5-yl)-3-benzoyl-thiourea] | 32.1 µM | 275 µM | 94 µM | 
5 | NC(=S)Nc1ccc2sc(N)nc2c1 [Example 18, (2-Amino-benzothiazol-5-yl)-thiourea] | 57.8 µM | 123 µM | 145 µM | 
6 | N=C(Nc1ccc2sc(N)nc2c1)c1cccs1 [Example 20, N-(2-Amino-benzothiazol-5-yl)-thiophene-2-carboxamidine hydrobromide] |  | 73 µM | 169 µM | 
7 | N=C(Nc1ccc2nc(NCCc3cnc[nH]3)sc2c1)c1cccs1 [Example 36(e), N-{2-[2-(3H-Imidazol-4-yl)-ethylamino]-benzothiazol-6-yl}-thiophene-2-carboxamidine] |  |  |  | neuroprotection observed

Now from value to molecule, other results behind:

Row | IC50 (nNOS) | IC50 (iNOS) | IC50 (eNOS) | SMILES | neuroprotection during NMDA challenge [1]
8 | 1.46 µM | 91 µM | 110 µM | N=C(Nc1ccc2nc(NCCc3ccc(Br)cc3)sc2c1)c1cccs1 [Example 36b, N-{2-[2-(4-Bromo-phenyl)-ethylamino]-benzothiazol-6-yl}-thiophene-2-carboxamidine] | 
9 | 1.6 µM | 163 µM | 210 µM | N=C(Nc1ccc2nc(NC3CCN(Cc4ccccc4)CC3)sc2c1)c1cccs1 [Example 36d, N-[2-(1-Benzyl-piperidin-4-ylamino)-benzothiazol-6-yl]-thiophene-2-carboxamidine] | 
10 |  | > 300 µM | > 300 µM | N=C(Nc1ccc2nc(NCCN3CCOCC3)sc2c1)c1cccs1 [Example 36f, N-[2-(2-Morpholin-4-yl-ethylamino)-benzothiazol-6-yl]-thiophene-2-carboxamidine] | neuroprotection observed
